# Data published in ChEMBL document CHEMBL1126034, “Carboxylic acid replacement structure-activity relationships in suosan type sweeteners. A sweet taste antagonist. 1” (J Med Chem, 1992).
# Experiments:
# Assay type in all cases: functional
# [1] = Compound was tested at the concentration of 4000(ppm) for bitterness rating in naringin aqueous solution contains concentration of 290(ppm)
# [2] = Compound was tested at the concentration of 4000(ppm) for percent sucrose equivalent intensity in thaumatin aqueous solution contains concentration of 40(ppm)
# [3] = Compound was tested at the concentration of 4000(ppm) for percent sucrose intensity in aspartame solution contains concentration of 2500(ppm)
# [4] = Compound was tested at the concentration of 2.0 mg/mL for percent sucrose intensity in aqueous sucrose solution (7.5%)
# [5] = Compound was tested at the concentration of 4000(ppm) for percent sucrose intensity in aspartame solution contains concentration of 1000(ppm)
# [6] = Compound was tested at the concentration of 3.0 mg/mL for percent sucrose intensity in aqueous sucrose solution (5.6%)
# [7] = Compound was tested at the concentration of 4000(ppm) for percent sucrose equivalent intensity in sucrose aqueous solution contains concentration of 10000(ppm)
# [8] = Compound was tested at the concentration of 4.0 mg/mL for percent sucrose intensity in aqueous sucrose solution (3.5%)
# [9] = Compound was tested at the concentration of 1000(ppm) for percent sucrose intensity in aspartame solution contains concentration of 3000(ppm)
# [10] = Compound was tested at the concentration of 4000(ppm) for percent sucrose intensity in aspartame solution contains concentration of 750(ppm)
# [11] = Compound was tested at the concentration of 0(ppm) for percent sucrose intensity in aspartame solution contains concentration of 2500(ppm)
# [12] = Compound was tested at the concentration of 2000(ppm) for percent sucrose intensity in aspartame solution contains concentration of 2500(ppm)
# [13] = Compound was tested at the concentration of 2000(ppm) for percent sucrose intensity in aspartame solution contains concentration of 3000(ppm)
# [14] = Compound was tested at the concentration of 0(ppm) for percent sucrose equivalent intensity in rebaudioside A aqueous solution contains concentration of 638(ppm)
# [15] = Compound was tested at the concentration of 0(ppm) for percent sucrose intensity in aspartame solution contains concentration of 2000(ppm)
# [16] = Compound was tested at the concentration of 0(ppm) for percent sucrose equivalent intensity in sucralose aqueous solution contains concentration of 152(ppm)
# [17] = Compound was tested at the concentration of 0(ppm) for percent sucrose intensity in aspartame solution contains concentration of 1500(ppm)
# [18] = Compound was tested at the concentration of 4.0 mg/mL for percent sucrose intensity in aqueous sucrose solution (10%)
# [19] = Compound was tested at the concentration of 0(ppm) for percent sucrose intensity in aspartame solution contains concentration of 750(ppm)
# [20] = Compound was tested at the concentration of 4000(ppm) for percent sucrose intensity in aspartame solution contains concentration of 500(ppm)
# [21] = Compound was tested at the concentration of 0.0 mg/mL for percent sucrose intensity in aqueous sucrose solution(5.6%)
# [22] = Compound was tested at the concentration of 4000(ppm) for percent sucrose intensity in aspartame solution contains concentration of 250(ppm)
# [23] = Compound was tested at the concentration of 0(ppm) for bitterness rating in quinine aqueous solution contains concentration of 15(ppm)
# [24] = Compound was tested at the concentration of 0(ppm) for bitterness rating in naringin aqueous solution contains concentration of 290(ppm)
# [25] = Compound was tested at the concentration of 4000(ppm) for percent sucrose equivalent intensity in sucralose aqueous solution contains concentration of 152(ppm)
# [26] = Compound was tested at the concentration of 4000(ppm) for percent sucrose intensity in aspartame solution contains concentration of 1500(ppm)
# [27] = Compound was tested at the concentration of 0(ppm) for percent sucrose equivalent intensity in NHDHC aqueous solution contains concentration of 250(ppm)
# [28] = Compound was tested at the concentration of 2000(ppm) for percent sucrose intensity in aspartame solution contains concentration of 750(ppm)
# [29] = Compound was tested at the concentration of 0(ppm) for percent sucrose equivalent intensity in MAG aqueous solution contains concentration of 3000(ppm)
# [30] = Compound was tested at the concentration of 0(ppm) for bitterness rating in caffiene aqueous solution contains concentration of 1100(ppm)
# [31] = Compound was tested at the concentration of 4000(ppm) for bitterness rating in caffiene aqueous solution contains concentration of 1100(ppm)
# [32] = Compound was tested at the concentration of 0(ppm) for percent sucrose intensity in aspartame solution contains concentration of 250(ppm)
# [33] = Compound was tested at the concentration of 0.0 mg/mL for percent sucrose intensity in aqueous sucrose solution(12.5%)
# [34] = Compound was tested at the concentration of 3.0 mg/mL for percent sucrose intensity in aqueous sucrose solution (3.5%)
# [35] = Compound was tested at the concentration of 1000(ppm) for percent sucrose intensity in aspartame solution contains concentration of 2500(ppm)
# [36] = Compound was tested at the concentration of 4.0 mg/mL for percent sucrose intensity in aqueous sucrose solution (12.5%)
# [37] = Compound was tested at the concentration of 4000(ppm) for percent sucrose equivalent intensity in aspartame aqueous solution contains concentration of 750(ppm)
# [38] = Compound was tested at the concentration of 3.0 mg/mL for percent sucrose intensity in aqueous sucrose solution (7.5%)
# [39] = Compound was tested at the concentration of 4000(ppm) for percent sucrose equivalent intensity in acesulfame-K aqueous solution contains concentration of 1000(ppm)
# [40] = Compound was tested at the concentration of 0(ppm) for percent sucrose equivalent intensity in saccharin aqueous solution contains concentration of 330(ppm)
# [41] = Compound was tested at the concentration of 0(ppm) for percent sucrose equivalent intensity in sucrose aqueous solution contains concentration of 10000(ppm)
# [42] = Compound was tested at the concentration of 0(ppm) for percent sucrose equivalent intensity in acesulfame-K aqueous solution contains concentration of 1000(ppm)
# [43] = Compound was tested at the concentration of 4.0 mg/mL for percent sucrose intensity in aqueous sucrose solution (5.6%)
# [44] = Compound was tested at the concentration of 4000(ppm) for percent sucrose equivalent intensity in NHDHC aqueous solution contains concentration of 250(ppm)
# [45] = Compound was tested at the concentration of 2000(ppm) for percent sucrose intensity in aspartame solution contains concentration of 2000(ppm)
# [46] = Compound was tested at the concentration of 0(ppm) for percent sucrose equivalent intensity in Na cyclamate aqueous solution contains concentration of 5000(ppm)
# [47] = Compound was tested at the concentration of 1000(ppm) for percent sucrose intensity in aspartame solution contains concentration of 750(ppm)
# [48] = Compound was tested at the concentration of 2000(ppm) for percent sucrose intensity in aspartame solution contains concentration of 1500(ppm)
# [49] = Compound was tested at the concentration of 4000(ppm) for percent sucrose equivalent intensity in Na cyclamate aqueous solution contains concentration of 5000(ppm)
# [50] = Compound was tested at the concentration of 1000(ppm) for percent sucrose intensity in aspartame solution contains concentration of 500(ppm)
# [51] = Compound was tested at the concentration of 2.0 mg/mL for percent sucrose intensity in aqueous sucrose solution (12.5%)
# [52] = Compound was tested at the concentration of 1000(ppm) for percent sucrose intensity in aspartame solution contains concentration of 2000(ppm)
# [53] = Compound was tested at the concentration of 0.0 mg/mL for percent sucrose intensity in aqueous sucrose solution( 10%)
# [54] = Compound was tested at the concentration of 0.0 mg/mL for percent sucrose intensity in aqueous sucrose solution(3.5%)
# [55] = Compound was tested at the concentration of 0(ppm) for percent sucrose equivalent intensity in thaumatin aqueous solution contains concentration of 40(ppm)
# [56] = Compound was tested at the concentration of 2.0 mg/mL for percent sucrose intensity in aqueous sucrose solution (10%)
# [57] = Compound was tested at the concentration of 4000(ppm) for percent sucrose equivalent intensity in rebaudioside A aqueous solution contains concentration of 638(ppm)
# [58] = Compound was tested at the concentration of 2.0 mg/mL for percent sucrose intensity in aqueous sucrose solution (3.5%)
# [59] = Compound was tested at the concentration of 4000(ppm) for percent sucrose equivalent intensity in saccharin aqueous solution contains concentration of 330(ppm)
# [60] = Compound was tested at the concentration of 3.0 mg/mL for percent sucrose intensity in aqueous sucrose solution (12.5%)
# [61] = Compound was tested at the concentration of 0(ppm) for percent sucrose intensity in aspartame solution contains concentration of 500(ppm)
# [62] = Compound was tested at the concentration of 2.0 mg/mL for percent sucrose intensity in aqueous sucrose solution (5.6%)
# [63] = Compound was tested at the concentration of 0(ppm) for percent sucrose intensity in aspartame solution contains concentration of 3000(ppm)
# [64] = Compound was tested at the concentration of 0(ppm) for percent sucrose equivalent intensity in aspartame aqueous solution contains concentration of 750(ppm)
# [65] = Compound was tested at the concentration of 4000(ppm) for percent sucrose intensity in aspartame solution contains concentration of 3000(ppm)
# [66] = Compound was tested at the concentration of 3.0 mg/mL for percent sucrose intensity in aqueous sucrose solution (10%)
# [67] = Compound was tested at the concentration of 4000(ppm) for bitterness rating in quinine aqueous solution contains concentration of 15(ppm)
# [68] = Compound was tested at the concentration of 2000(ppm) for percent sucrose intensity in aspartame solution contains concentration of 1000(ppm)
# [69] = Compound was tested at the concentration of 1000(ppm) for percent sucrose intensity in aspartame solution contains concentration of 1000(ppm)
# [70] = Compound was tested at the concentration of 1000(ppm) for percent sucrose intensity in aspartame solution contains concentration of 1500(ppm)
# [71] = Compound was tested at the concentration of 0.0 mg/mL for percent sucrose intensity in aqueous sucrose solution(7.5%)
# [72] = Compound was tested at the concentration of 4.0 mg/mL for percent sucrose intensity in aqueous sucrose solution (7.5%)
# [73] = Compound was tested at the concentration of 2000(ppm) for percent sucrose intensity in aspartame solution contains concentration of 500(ppm)
# [74] = Compound was tested at the concentration of 4000(ppm) for percent sucrose intensity in aspartame solution contains concentration of 2000(ppm)
# [75] = Compound was tested at the concentration of 4000(ppm) for percent sucrose equivalent intensity in MAG aqueous solution contains concentration of 3000(ppm)
# [76] = Compound was tested at the concentration of 2000(ppm) for percent sucrose intensity in aspartame solution contains concentration of 250(ppm)
# [77] = Compound was tested at the concentration of 1000(ppm) for percent sucrose intensity in aspartame solution contains concentration of 250(ppm)
# [78] = Compound was tested at the concentration of 0(ppm) for percent sucrose intensity in aspartame solution contains concentration of 1000(ppm)
structure (smiles),measurement,setting,value
N#Cc1ccc(NC(=O)NCS(=O)(=O)O)cc1,Bitter taste intensity,[1],7.8 0-15 scale
same,Sweetness potency,[2],6.23 0-15 scale
same,Sweetness potency,[3],8.86 0-15 scale
same,Sweetness potency,[4],4.9 0-15 scale
same,Sweetness potency,[5],5.85 0-15 scale
same,Sweetness potency,[6],2.2 0-15 scale
same,Sweetness potency,[7],3.23 0-15 scale
same,Sweetness potency,[8],1.2 0-15 scale
same,Sweetness potency,[9],10.7 0-15 scale
same,Sweetness potency,[10],4.46 0-15 scale
same,Sweetness potency,[11],12.9 0-15 scale
same,Sweetness potency,[12],8.95 0-15 scale
same,Sweetness potency,[13],9.11 0-15 scale
same,Sweetness potency,[14],7.62 0-15 scale
same,Sweetness potency,[15],12 0-15 scale
same,Sweetness potency,[16],8.52 0-15 scale
same,Sweetness potency,[17],11.4 0-15 scale
same,Sweetness potency,[18],4.5 0-15 scale
same,Sweetness potency,[19],9.78 0-15 scale
same,Sweetness potency,[20],2.57 0-15 scale
same,Sweetness potency,[21],6.1 0-15 scale
same,Sweetness potency,[22],1.37 0-15 scale
same,Bitter taste intensity,[23],11.8 0-15 scale
same,Bitter taste intensity,[24],10.5 0-15 scale
same,Sweetness potency,[25],1.43 0-15 scale
same,Sweetness potency,[26],6.44 0-15 scale
same,Sweetness potency,[27],8.85 0-15 scale
same,Sweetness potency,[28],6.24 0-15 scale
same,Sweetness potency,[29],6.97 0-15 scale
same,Bitter taste intensity,[30],8.48 0-15 scale
same,Bitter taste intensity,[31],4.77 0-15 scale
same,Sweetness potency,[32],5.34 0-15 scale
same,Sweetness potency,[33],12.3 0-15 scale
same,Sweetness potency,[34],1.6 0-15 scale
same,Sweetness potency,[35],10.2 0-15 scale
same,Sweetness potency,[36],6.4 0-15 scale
same,Sweetness potency,[37],3.87 0-15 scale
same,Sweetness potency,[38],4.2 0-15 scale
same,Sweetness potency,[39],4.59 0-15 scale
same,Sweetness potency,[40],8.15 0-15 scale
same,Sweetness potency,[41],9.6 0-15 scale
same,Sweetness potency,[42],7.88 0-15 scale
same,Sweetness potency,[43],1.3 0-15 scale
same,Sweetness potency,[44],5.98 0-15 scale
same,Sweetness potency,[45],9.35 0-15 scale
same,Sweetness potency,[46],10.1 0-15 scale
same,Sweetness potency,[47],7.43 0-15 scale
same,Sweetness potency,[48],8.35 0-15 scale
same,Sweetness potency,[49],6.05 0-15 scale
same,Sweetness potency,[50],5.98 0-15 scale
same,Sweetness potency,[51],9.3 0-15 scale
same,Sweetness potency,[52],10.5 0-15 scale
same,Sweetness potency,[53],10.1 0-15 scale
same,Sweetness potency,[54],4 0-15 scale
same,Sweetness potency,[55],8.86 0-15 scale
same,Sweetness potency,[56],7.3 0-15 scale
same,Sweetness potency,[57],3.11 0-15 scale
same,Sweetness potency,[58],2.3 0-15 scale
same,Sweetness potency,[59],4.06 0-15 scale
same,Sweetness potency,[60],8.6 0-15 scale
same,Sweetness potency,[61],7.55 0-15 scale
same,Sweetness potency,[62],3.6 0-15 scale
same,Sweetness potency,[63],11.4 0-15 scale
same,Sweetness potency,[64],9.88 0-15 scale
same,Sweetness potency,[65],7.82 0-15 scale
same,Sweetness potency,[66],6.5 0-15 scale
same,Bitter taste intensity,[67],5.73 0-15 scale
same,Sweetness potency,[68],7.34 0-15 scale
same,Sweetness potency,[69],8.83 0-15 scale
same,Sweetness potency,[70],9.62 0-15 scale
same,Sweetness potency,[71],8.5 0-15 scale
same,Sweetness potency,[72],3.3 0-15 scale
same,Sweetness potency,[73],4.48 0-15 scale
same,Sweetness potency,[74],6.91 0-15 scale
same,Sweetness potency,[75],5.28 0-15 scale
same,Sweetness potency,[76],2.11 0-15 scale
same,Sweetness potency,[77],3.3 0-15 scale
same,Sweetness potency,[78],10.1 0-15 scale
